Data as given in patent EP0539209A1, “Benzo-isoquinoline derivatives and analogs and their use in therapeutics” (THE UPJOHN COMPANY, priority 1991, dated 1993).

Experiments:
5-HT1A receptor = target: T1, 5-HT1A receptor (Homo sapiens, UniProt P08908); assay: CNS Receptor Binding Assay, 5-HT1A; conditions: PART I - TABLE I; test compounds at 1 microMolar concentration competing with radioligand; 100 = binds as well as standard 8-OH-DPAT
T1 sequence (P08908 1-422): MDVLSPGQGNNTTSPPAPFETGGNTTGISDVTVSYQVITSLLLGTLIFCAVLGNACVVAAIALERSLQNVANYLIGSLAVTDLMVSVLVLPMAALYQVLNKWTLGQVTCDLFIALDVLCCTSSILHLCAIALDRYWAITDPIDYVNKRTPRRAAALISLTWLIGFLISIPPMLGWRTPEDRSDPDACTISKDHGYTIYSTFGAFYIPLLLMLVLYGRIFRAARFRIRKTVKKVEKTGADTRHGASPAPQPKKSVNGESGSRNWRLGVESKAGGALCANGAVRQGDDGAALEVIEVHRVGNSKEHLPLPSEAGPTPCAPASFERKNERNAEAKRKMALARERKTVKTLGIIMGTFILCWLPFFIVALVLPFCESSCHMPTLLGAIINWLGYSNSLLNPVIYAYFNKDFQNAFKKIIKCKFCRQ
Excerpt: (§1) CNS Receptor Binding Assay (PART I - TABLE I): The Central Nervous System Binding Assay measures the percent inhibibition from experiments employing test compounds at 1 microMolar concentration competing with various radioligands for binding to whole brain membranes, membranes prepared from specific brain structures, or membranes prepared from cell lines expressing cloned receptors. When percent inhibition is equal to 100 the test compound binds as well as the standard compound. The standard compound for the 5-HT1A receptor is 8-OH-DPAT. The standard compound for the dopamine D1 receptor is SCH 23390.

dopamine D1 receptor = dopamine D1 receptor (Homo sapiens, UniProt P21728); assay: CNS Receptor Binding Assay, dopamine D1; conditions: PART I - TABLE I; test compounds at 1 microMolar concentration; standard SCH 23390
Chain of dopamine D1 receptor (P21728 whole entry, species assumed): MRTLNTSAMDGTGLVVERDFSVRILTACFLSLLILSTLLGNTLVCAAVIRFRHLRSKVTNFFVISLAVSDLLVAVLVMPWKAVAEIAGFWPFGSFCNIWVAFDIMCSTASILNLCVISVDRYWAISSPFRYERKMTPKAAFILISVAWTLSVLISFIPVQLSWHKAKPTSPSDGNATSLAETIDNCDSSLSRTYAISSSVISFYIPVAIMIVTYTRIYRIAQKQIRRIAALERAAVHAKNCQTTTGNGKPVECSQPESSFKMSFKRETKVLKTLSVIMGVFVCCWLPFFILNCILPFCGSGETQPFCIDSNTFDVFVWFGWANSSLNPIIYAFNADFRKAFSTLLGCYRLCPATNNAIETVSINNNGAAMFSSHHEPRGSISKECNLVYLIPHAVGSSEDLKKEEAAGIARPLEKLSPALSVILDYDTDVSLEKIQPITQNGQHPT
Excerpt: as §1
as §1, with “(PART II” for “(PART I”, “percent inhibition” for “percent inhibibition”, “the” for “the 5-HT1A receptor is 8-OH-DPAT. The standard compound for the”

Dopamine - D2 = Dopamine - D2 (Homo sapiens, UniProt P14416); assay: CNS Receptor Binding Assay, dopamine D2; conditions: PART I - TABLE I; test compounds at 1 microMolar concentration
Chain of Dopamine - D2 (P14416 whole entry): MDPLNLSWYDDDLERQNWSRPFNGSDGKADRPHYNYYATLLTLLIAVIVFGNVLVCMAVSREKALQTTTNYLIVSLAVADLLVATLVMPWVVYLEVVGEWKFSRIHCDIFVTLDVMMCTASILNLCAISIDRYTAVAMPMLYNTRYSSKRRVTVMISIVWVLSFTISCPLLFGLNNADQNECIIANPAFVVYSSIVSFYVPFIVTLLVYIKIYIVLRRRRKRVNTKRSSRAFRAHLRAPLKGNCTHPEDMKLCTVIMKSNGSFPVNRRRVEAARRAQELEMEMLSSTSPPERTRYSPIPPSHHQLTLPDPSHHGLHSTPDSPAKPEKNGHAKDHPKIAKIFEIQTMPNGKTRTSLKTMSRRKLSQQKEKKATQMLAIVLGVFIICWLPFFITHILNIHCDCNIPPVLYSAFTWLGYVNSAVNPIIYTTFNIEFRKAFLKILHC
Excerpt: as §1
as §1, with “(PART II” for “(PART I”, “percent inhibition” for “percent inhibibition”, “the” for “the 5-HT1A receptor is 8-OH-DPAT. The standard compound for the”

Row | 5-HT1A % inhibition (5-HT1A receptor) [%] | Dopamine - D1 % inhibition (dopamine D1 receptor) [%] | Dopamine - D2 % inhibition (Dopamine - D2) [%] | inhibition at 1 µM (5-HT1A receptor) [%] | inhibition at 1 µM (Dopamine - D2) [%] | inhibition at 1 µM (dopamine D1 receptor) [%] | Structure (SMILES)
1 | 93 | 13 | 45 |  |  |  | CCCN1CCC2Cc3cccc(C(N)=O)c3C2CC1 (single isomer, unassigned) [compound 3]
2 | 21 | 0 | 2 |  |  |  | CCCN1CCC2Cc3cccc(C(N)=O)c3C2CC1 (single isomer, unassigned) [compound 4]
3 |  | 10 |  | 24 | 24 |  | CCCN1CCC2Cc3c(C(N)=O)cccc3C2CC1 (single isomer, unassigned) [compound 5]
4 | 18 | 50 | 31 |  |  |  | CCCN1CCC2Cc3c(C(N)=O)cccc3C2CC1 (single isomer, unassigned) [compound 6]
5 | 17 | 11 | 22 |  |  |  | CCCN1CCC2Cc3c(C#N)cccc3C2CC1 (single isomer, unassigned) [compound 7]
6 |  |  |  | 15 | 35 | 7 | CCCN1CCC2Cc3c(C#N)cccc3C2CC1 (single isomer, unassigned) [compound 8]
7 |  |  |  | 99 | 74 | 57 | CCCN1CCC2Cc3c(Cl)ccc(OC)c3C2CC1 (stereo not drawn) [compound 1]
